For experiment [1], the target named is T1, SARS-CoV-2 spike protein - ACE2 interaction (Severe acute respiratory syndrome coronavirus 2, UniProt P0DTC2).
T1 construct: purchased RayBio CoV-SACE2
Put plainly: RayBio COVID-19 Spike-ACE2 binding assay kit (ELISA). On the set-up: species or system SARS-CoV-2 / human. Conditions: LMW-DS 3.0 to 600 µg/ml. On the procedure:
The RayBio® COVID-19 Spike-ACE2 binding assay kit (cat. number CoV-SACE2) was used as per the manufacturer’s instructions (ver 1.6) to assess the ability of LMW-DS to disrupt the interaction between SARS-CoV-2 spike protein and ACE2.
LMW-DS (ILB®, Tikomed AB, Viken, Sweden, WO 2016/076780) in saline was added in concentrations ranging from […] to 600 µg/ml.
Background: ELISA stands for enzyme-linked immunosorbent assay.

For experiment [2], the system named is HUVEC + (IL-4 and histamine). The experiment is described as follows: BioMAP 4H system. Conditions: annotated relative to vehicle controls. Format: cell-based, human. From the text: (§1) Cell types and stimuli used in each system are as follows: 3C system [HUVEC + (IL-1β, TNFα and IFNy)], 4H system [HUVEC + (IL-4 and histamine)], LPS system [PBMC and HUVEC + LPS (TLR4 ligand)], SAg system [PBMC and HUVEC + TCR ligands], BT system [CD19+ B cells and PBMC + (α-IgM and TCR ligands)], BF4T system [bronchial epithelial cells and HDFn + (TNFα and IL-4)], BE3C system [bronchial epithelial cells + (IL-1β, TNFα and IFNy)], CASM3C system [coronary artery smooth muscle cells + (IL-1 β, TNFα and IFNy)], HDF3CGF system [HDFn + (IL-1β, TNFα, IFNy, EGF, bFGF and PDGF-BB)], KF3CT system [keratinocytes and HDFn + (IL-1β, TNFα, IFNy and TGFβ)], MyoF system [differentiated lung myofibroblasts + (TNFα and TGFβ)] and Mphg system [HUVEC and M1 macrophages + Zymosan (TLR2 ligand)].
(§2) Systems are derived from either single cell types or co-culture systems. Adherent cell types are cultured in 96 or 384-well plates until confluence, followed by the addition of PBMC (SAg and LPS systems). […] Soluble factors from supernatants are quantified using either HTRF® detection, bead-based multiplex immunoassay or capture ELISA. Overt adverse effects of test agents on cell proliferation and viability (cytotoxicity) are detected by sulforhodamine B (SRB) staining, for adherent cells, and alamarBlue® reduction for cells in suspension. […]

For experiment [3], the system named is PBMC and HUVEC + LPS (TLR4 ligand). The experiment is described as follows: BioMAP LPS system. Conditions: annotated relative to vehicle controls. It is filed as cell-based, human.
Description: as §1, §2

As for sodium salt of dextran sulfate [LMW-DS], in experiment [1], the “SARS-CoV-2 spike protein - ACE2 interaction” value was “concentration dependent disruption”. Moreover, the Increased biomarker activity entry was “uPAR” in experiment [2] and “IL-8” in experiment [3]. In addition, the Decreased biomarker activity entry in experiment [3] is given as “sTNFα”.

The values above are taken from US20230346827A1 (priority 2020, published 2023).
